Test: mn = molality of the nth substance listed, in mol/kg
Settings: 100 kPa, Liquid, Vibrating tube method

N[C@@H](Cc1c[nH]cn1)C(=O)O [L-histidine] + O
mass density [kg/m3]
Settings	278.65 K	279.15 K	279.65 K	280.15 K	280.65 K	281.15 K	281.65 K	282.15 K	282.65 K	283.15 K
m1 = 0.0078	1000.43	1000.42	1000.4	1000.38	1000.36	1000.33	1000.29	1000.26	1000.22	1000.18
m1 = 0.0176	1001	1000.98	1000.97	1000.94	1000.92	1000.89	1000.85	1000.82	1000.78	1000.73
m1 = 0.0269	1001.6	1001.58	1001.56	1001.53	1001.51	1001.48	1001.44	1001.41	1001.36	1001.32
m1 = 0.048	1002.82	1002.8	1002.78	1002.75	1002.73	1002.69	1002.65	1002.62	1002.57	1002.53
m1 = 0.0636	1003.84	1003.82	1003.79	1003.76	1003.73	1003.7	1003.66	1003.62	1003.58	1003.53
m1 = 0.0856	1005.07	1005.05	1005.02	1004.99	1004.96	1004.92	1004.88	1004.84	1004.79	1004.74
m1 = 0.0982	1005.82	1005.8	1005.77	1005.74	1005.71	1005.67	1005.63	1005.59	1005.54	1005.49
m1 = 0.115	1006.7	1006.68	1006.65	1006.62	1006.58	1006.54	1006.5	1006.46	1006.41	1006.36
m1 = 0.1268	1007.49	1007.46	1007.43	1007.39	1007.36	1007.32	1007.27	1007.23	1007.18	1007.13
m1 = 0.138	1008.16	1008.13	1008.1	1008.06	1008.03	1007.99	1007.94	1007.89	1007.84	1007.79
m1 = 0.1586	1009.47	1009.44	1009.41	1009.37	1009.33	1009.28	1009.24	1009.19	1009.13	1009.08
